“Also recorded” adds a separate entry of the source.
Experiments:
Assay type in all cases: in vivo, mouse
[1] = system: Fbn1C1039G/+ mice; experiment: Muscle regeneration after cardiotoxin-induced injury in Fbn1C1039G/+ mice; details: 4 and 18 days after injury, monopotassium salt
Method: All mouse protocols were approved by the Animal Care and Use Committee of Johns Hopkins University School of Medicine. Creation of the mouse line harboring the Fbn1 mutation C1039G has been previously described (Judge, D. P. et al. (2004) J Clin Invest 114, 172-81). All analyses were performed in male mice after back-crossing (>9 times) this mutation into the C57BL/6J background, allowing valid comparisons between litters. Mice were sacrificed with an inhalation overdose of halothane (Sigma-Aldrich) or by cervical dislocation. […] Subsequently, mice were analyzed at 4, 7, 18 and 28 days after injury. For regeneration experiments in mdx mice we injected 150 μl of cardiotoxin into the tibialis anterior muscle of wild-type and mdx mice, either treated or untreated with TGFβ neutralizing antibody (n=6 each group) at 9 months of age and analyzed skeletal muscle at 4 days and 18 days after injection.
Mice were continued on oral therapy for 6 months and sacrificed. […] After 6 months of treatment, forelimb and hindlimb grip strength was assessed using an automated grip strength meter (Columbus Instruments, Columbus, Ohio). […] Total peak force (in Newtons) was determined by an electronic strain gauge as previously described and corrected for body weight (Wagner, K. R., et al. (2002) Ann Neurol 52, 832-6). […]

[2] = system: mdx mice; experiment: Muscle regeneration after cardiotoxin injury in 9-month old mdx mice
Method: All mouse protocols were approved by the Animal Care and Use Committee of Johns Hopkins University School of Medicine. Creation of the mouse line harboring the Fbn1 mutation C1039G has been previously described (Judge, D. P. et al. (2004) J Clin Invest 114, 172-81). All analyses were performed in male mice after back-crossing (>9 times) this mutation into the C57BL/6J background, allowing valid comparisons between litters. Mice were sacrificed with an inhalation overdose of halothane (Sigma-Aldrich) or by cervical dislocation. For muscle regeneration experiments in Fbn1^C1039G/+ mice, 100 μl cardiotoxin (10 μM Naja nigricollis; Calbiochem, La Jolla, Calif.) (Goetsch, S. C. et al. (2003) Physiol Genomics 14, 261-71; Cohn, R. D. et al. (2002) Cell 110, 639-48) was injected into the tibialis anterior muscle of wild-type and Fbn1^C1039G/+ mice either treated or untreated with TGFβ neutralizing antibody (n=6, each group) at 4 months of age. Subsequently, mice were analyzed at 4, 7, 18 and 28 days after injury. For regeneration experiments in mdx mice we injected 150 μl of cardiotoxin into the tibialis anterior muscle of wild-type and mdx mice, either treated or untreated with TGFβ neutralizing antibody (n=6 each group) at 9 months of age and analyzed skeletal muscle at 4 days and 18 days after injection.
Mice were continued on oral therapy for 6 months and sacrificed. […] Age-matched wild-type and mdx mice (placebo-treated) served as a control group. After 6 months of treatment, forelimb and hindlimb grip strength was assessed using an automated grip strength meter (Columbus Instruments, Columbus, Ohio). […] Total peak force (in Newtons) was determined by an electronic strain gauge as previously described and corrected for body weight (Wagner, K. R., et al. (2002) Ann Neurol 52, 832-6). […] The degree of fatigue was calculated by comparing the first two pulls to the last two pulls with the decrement between pulls 1+2 and pulls 4+5 providing a measure of fatigue. […]

[3] = system: Fbn1C1039G/+ mice; experiment: Postnatal treatment with losartan and propranolol, aorta of Fbn1C1039G/+ mice; details: for Aortic root growth rate: during 6 months of treatment
Text: However, before treatment, the aortic diameter in Fbn1C1039G/+ mice was always greater than in untreated wild-type mice (1.59±0.11 mm; P<0.002).
Three independent aortic root measurements were obtained for each mouse every 2 months during the 6 months of treatment. Mice were killed at 8 months of age. […] The aortic root growth rate over this period was less in the wild-type mice than in the placebo-treated Fbn1C1039G/+ mice (P<0.0001, FIG. 21I).

[4] = system: TGFβ signaling (pSmad2/3, periostin); experiment: Immunofluorescence of TGFβ signaling markers (pSmad2/3, periostin, TSP1) in skeletal muscle of fibrillin-1 deficient mice
Method: Immunofluorescent studies were performed as previously described (Cohn, R. D. et al. (2002) Cell 110, 639-48). […] The following antibodies were used in this study: goat polyclonal anti-pSmad 2/3, rabbit polyclonal anti c-met and rabbit polyclonal anti-myogenin (all from Santa Cruz Biotechnology Inc.); rabbit polyclonal anti-pSmad2 (#3104, Cell Signal) rat polyclonal anti-lamininyl, rabbit polyclonal anti-dystrophin, rabbit polyclonal antithrombospondin-1 and rabbit polyclonal anti-periostin (all from Abcam); rabbit polyclonal anti-fibrillin-1 (pAb 9543) (Judge, D. P. et al. (2004) J Clin Invest 114, 172-81); goat polyclonal anti-vimentin (Sigma) and, mouse monoclonal anti-beta-sarcoglycan mouse monoclonal anti-developmental myosin (Novocastra). Anti a-dystroglycan antibody IIH6 was generously supplied by Dr. Kevin Campbell, Iowa. Secondary Alexa fluor donkey anti-rabbit, anti-rat, anti mouse IgM and IgG1 and anti-goat conjugated antibodies (Molecular probes) were applied for 1 hour at room temperature. Nuclei were stained with DAPI for 5 minutes, and inverted coverslips were mounted onto glass slides using Cytoseal (Vector Laboratories).
Skeletal muscle from Fbn1^C1039G/+ mice was assessed for increased TGFβ signaling by immunohistochemical staining for phosphorylated Smad2/3 (pSmad2/3). […]

[5] = 6 months of treatment, monopotassium salt

Question: Which “Muscle regeneration after cardiotoxin injury, in words” value ([1]; listed as Losartan) does the source give for `CCCCc1nc(Cl)c(CO)n1Cc1ccc(-c2ccccc2-c2nnn[nH]2)cc1.[K]` [losartan, 2-butyl-4-chloro-1-[p-(o-1H-tetrazol-5-ylphenyl)benzyl]imidazole-5-methanol monopotassium salt] here?
Answer: Its value is “rescued; also recorded: normal initiation of muscle regeneration”.

Question: And the “Muscle regeneration after cardiotoxin injury, in words” value [1]?
Answer: Its value is “markedly improved”.

Question: And the “Muscle regeneration in mdx mice, in words” value ([2]; 4 days after cardiotoxin, neonatal myosin staining)?
Answer: Its value is “active regeneration comparable to that seen in wild-type mice”.

Question: And the “Fibrosis (vimentin) after injury, in words” value ([2]; 18 days after cardiotoxin, monopotassium salt)?
Answer: The value was “reduced fibrosis; also recorded: marked reduction in fibrosis”.

Question: What about the “Neonatal myosin positive fibers” value ([2]; four days after injury, untreated mdx 268±12, wild-type 689±19) of the same molecule?
Answer: Its value is 513±14 neonatal myosin positive fibers per tibialis anterior muscle.

Question: What about the “Aortic wall / elastic fiber architecture” value [3, 5] of the same molecule?
Answer: The value was “full normalization relative to wild-type mice”.

Question: What about the Aortic wall thickness [3, 5] of the same molecule?
Answer: Its Aortic wall thickness is “full normalization relative to wild-type mice; also recorded: indistinguishable from that seen in wild-type mice”.

Question: And the “Aortic root growth rate” value ([3]; listed as Losartan, monopotassium salt)?
Answer: Its value is “normalizes growth rate”.

Question: What about the “Aortic root growth rate” value ([3]; monopotassium salt) of the same molecule?
Answer: Its value is “indistinguishable from that in the wild-type group”.

Question: What about the “Elastic fiber fragmentation (VVG staining)” value ([3]; from 7 weeks of age, 6 months, drinking water, monopotassium salt) of the same molecule?
Answer: The value was “prevented elastic fiber fragmentation; also recorded: Elastic lamellae are intact”.

Question: What about the “TGF-β signaling in aortic media (nuclear pSmad2)” value ([3]; from 7 weeks of age, 6 months, monopotassium salt) of the same molecule?
Answer: The value was “blunted TGF-β signaling; also recorded: Nuclear pSmad2 staining is decreased”.

Question: And the “Absolute diameter of the aortic root at the end of treatment” value ([3]; versus untreated wild-type littermates)?
Answer: Its value is “similar”.

Question: And the “Nuclear pSmad2/3 and sarcolemmal periostin in uninjured skeletal muscle” value ([4]; Fbn1C1039G/+ mice, steady state)?
Answer: Its value is “abrogation of TGFβ signaling”.

Question: What about the “Expression of thrombospondin-1 (TSP1) and periostin in skeletal muscle” value ([4]; losartan-treated fibrillin-1 deficient mice) of the same molecule?
Answer: Its value is “Decreased expression”.

Source: patent US8597646B2, “Methods and compositons featuring TGF-beta antagonists for the treatment of marfan syndrome and associated disorders” (The Johns Hopkins University, priority 2005, dated 2013)
